Test results reported in patent US7001903B2, “Synergistic insecticidal mixtures” (Bayer Aktiengesellschaft, priority 1999, dated 2006).

What was measured:
Format in all cases: in vivo
Myzus persicae = test: Critical concentration test, foliar insecticidal activity against sucking pests (leaf dip, cabbage); conditions: Myzus persicae on cabbage
Excerpt: Activity of Folia-Insecticidal Formulations Against Sucking Pests
The insecticidal activity was examined using the critical concentration test. From each of the test preparations, an aqueous dilution series is made by diluting the individual concentrations by the factor 5.
To determine any synergistic activity, weakly active concentrations of chloronicotinyl compounds are combined with various active compound concentrations of Tracer (Spinosad).
The test plants used are cabbage plants at the one-leaf stage which are infested by Myzus persicae (green peach aphid). The shoots or leaves with the aphids are dipped for approximately 3 seconds into the respective liquors. The experiments are subsequently placed in a greenhouse at 21° C. and 65% relative atmospheric humidity.
Evaluation for mortality is carried out after 2 and 7 days.

[1] = test system: Phaedon cochleariae larvae; test: Critical concentration test / root-systemic action (cabbage, soil treatment)
Procedure: (§1) Critical Concentration Test/Root-Systemic Action
To produce a suitable preparation of active compound, 1 part by weight of active compound is mixed with the stated amount of solvent, the stated amount of emulsifier is added and the concentrate is diluted with water to the desired concentration.
The active compound preparation is mixed intimately with soil. The concentration of the active compound in the preparation is of virtually no importance, only the amount by weight of active compound per unit volume of soil, which is given in ppm (=mg/l), being decisive. The treated soil is filled into 500 ml pots, 8 cabbage seeds are placed at a depth of approximately 1 cm, the hole is filled and the soil surface is pressed down gently.
After a further 3 days, the test is evaluated by estimating the leaf-feeding in the treated and in the untreated plant. The effect is 100% if, compared with the untreated control, only […] feeding damage is observed; it is 0% when the entire cabbage has been eaten.

Aphis fabae = test: Critical concentration test / root-systemic action (broad beans, soil treatment); conditions: 0.035 ppm in soil
Procedure: as §1
To produce a suitable preparation of active compound, 1 part by weight of active compound is mixed with a stated amount of solvent, the stated amount of emulsifier is added and the concentrate is diluted with water to the desired concentration.
The active compound preparation is mixed intimately with soil. The concentration of the active compound in the preparation is of virtually no importance, only the amount by weight of active compound per unit volume of soil, which is given in ppm (=mg/l), being decisive. The treated soil is filled into 250 ml pots and the pots are planted with pre-germinated broad beans. In this manner, the active compound can be taken up from the soil by the roots of the plants and transported into the leaves.
After a further 7 days, the test is evaluated by estimating the dead animals. The root-systemic effect of the active compound is deduced from the destruction figures. It is 100% when all the test animals have been killed and 0% when just as many test insects are still alive as in the untreated control.

[2] = compound (III) alone 0.00016% a.i., evaluation after 2 days
[3] = compound (III) alone 0.00016% a.i., evaluation after 7 days
[4] = compound (III) alone 0.0008% a.i., evaluation after 2 days
[5] = compound (III) alone 0.0008% a.i., evaluation after 7 days

SMILES: N#C/N=C1\SCCN1Cc1ccc(Cl)nc1 [Compound (III l)]
- kill (Myzus persicae; [2]): 8%
- kill (Myzus persicae; [3]): 0%
- kill (Myzus persicae; [4]): 85%
- kill (Myzus persicae; [5]): 38%
- Degree of destruction in % at active compound concentrations ([1]; 2.50 ppm in soil): 2.50 ppm = 0%

SMILES: O=[N+]([O-])/N=C1\NCCN1Cc1ccc(Cl)nc1 [Compound (IIIa)]
- kill (Myzus persicae; [2]): 18%
- kill (Myzus persicae; [3]): 2%
- kill (Myzus persicae; [4]): 90%
- kill (Myzus persicae; [5]): 78%
- Degree of destruction in % at active compound concentrations (Aphis fabae): 0.035 ppm = 50%
- Degree of destruction in % at active compound concentrations ([1]; 1.25 ppm in soil): 1.25 ppm = 0%

SMILES: C/C(=N\C#N)N(C)Cc1ccc(Cl)nc1 [Compound (IIIe)]
- Degree of destruction in % at active compound concentrations ([1]; 5.00 ppm in soil): 5.00 ppm = 0%

SMILES: CN1COCN(Cc2cnc(Cl)s2)/C1=N/[N+](=O)[O-] [Compound (IIIg)]
- kill (Myzus persicae; [2]): 0%
- kill (Myzus persicae; [3]): 0%
- kill (Myzus persicae; [4]): 79%
- kill (Myzus persicae; [5]): 70%
- Degree of destruction in % at active compound concentrations ([1]; 0.30 ppm in soil): 0.30 ppm = 50%

SMILES: CN/C(=N\[N+](=O)[O-])NCc1cnc(Cl)s1 [Compound (IIIk)]
- kill (Myzus persicae; [2]): 10%
- kill (Myzus persicae; [3]): 2%
- kill (Myzus persicae; [4]): 48%
- kill (Myzus persicae; [5]): 28%
- Degree of destruction in % at active compound concentrations ([1]; 0.30 ppm in soil): 0.30 ppm = 0%
